In ChEMBL document CHEMBL4699400, “Discovery of a novel kinase hinge binder fragment by dynamic undocking” (RSC Med Chem, 2020):
Active and inactive are the calls of the source. The rule behind the calls is not given here.

Columns and labels:
[1] = biological target: T1, Maternal embryonic leucine zipper kinase (Homo sapiens, UniProt Q14680); test: Binding affinity to human N-terminal His-tagged MELK (1 to 337 residues) expressed in Escherichia coli BL21 pLysS at 50 uM by STD-NMR analysis
Target sequence in this assay (Q14680 whole entry, looked up, the tested form may be a part): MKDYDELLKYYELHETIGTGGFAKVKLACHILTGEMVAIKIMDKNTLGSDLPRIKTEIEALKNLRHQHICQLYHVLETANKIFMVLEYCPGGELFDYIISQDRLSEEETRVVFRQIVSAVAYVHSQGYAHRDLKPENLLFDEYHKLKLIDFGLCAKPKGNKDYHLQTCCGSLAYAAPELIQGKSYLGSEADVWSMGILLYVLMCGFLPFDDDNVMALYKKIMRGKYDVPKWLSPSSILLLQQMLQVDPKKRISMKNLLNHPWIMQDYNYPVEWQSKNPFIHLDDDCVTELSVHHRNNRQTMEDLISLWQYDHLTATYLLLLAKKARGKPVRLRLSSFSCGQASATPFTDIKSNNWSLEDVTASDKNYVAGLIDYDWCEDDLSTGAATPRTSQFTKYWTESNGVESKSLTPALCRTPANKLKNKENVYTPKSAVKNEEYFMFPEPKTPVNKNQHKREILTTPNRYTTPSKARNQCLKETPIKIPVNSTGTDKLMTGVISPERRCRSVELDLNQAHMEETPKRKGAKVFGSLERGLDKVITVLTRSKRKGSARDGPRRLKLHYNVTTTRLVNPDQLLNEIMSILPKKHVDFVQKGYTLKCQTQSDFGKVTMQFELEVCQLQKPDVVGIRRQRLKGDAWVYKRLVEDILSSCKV

[2] = biological target: T1, Maternal embryonic leucine zipper kinase; test: Displacement of kinase tracer 236 from human N-terminal His-tagged MELK (1 to 337 residues) expressed in Escherichia coli BL21 pLysS by microscale thermophoresis assay
Target sequence in this assay (Q14680 whole entry, the tested form may be a part): as the sequence (Q14680 whole entry, looked up, the tested form may be a part) above

Activity [1]: Active | EC50 [2]: 21.1 µM | Ki [2]: 5.47 µM
SMILES: Nc1cccc2cc[nH]c(=O)c12
